Measured values from patent US20240188566A1, “Biocidal Composition and Method” (ARXADA, LLC, priority 2021, published 2024).
Marks after values point to notes of the source that are not given here.

Tests used:
Assay type in all cases: cell-based
[1] = tested on: Pseudomonas aeruginosa, Escherichia coli, Enterobacter cloacae, Acinetobacter calcoaceticus; assay: In-can challenge test, modified ASTM D2574-97 (Table 1)
Experimental: (§1) Various formulations were made in accordance with the present disclosure and tested for performance. In one challenge test, the efficacy of dicyandiamide as an adjuvant for BIT was evaluated using modified ASTM D2574-97 “Standard Test Method for Resistance of Emulsion Paints in the Container to Attack by Microorganisms” with higher inoculation volumes and frequency. A standard consortium of four (4) bacterial populations: Pseudomonas aeruginosa, Escherichia coli, Enterobacter cloacae, Acinetobacter calcoaceticus was used to inoculate three (3) different samples at ten percent (10%), five percent (5%), or two and a half percent (2.5%) of the sample size. At twenty-four (24) hours and seventy-two (72) hours after each inoculation, a portion of each sample was streaked on tryptic soy agar. A dilution plate count was performed at the last seventy-two (72) hour time point.
(§2) Example data provided in Tables 1, 2 and 3 should be understood as indicating the degree of microbial growth observed for a given data point unless otherwise indicated. In particular, each plate is ranked from 0 through 5c (i.e., one of 0, 1, 2, 3, 4, 5, or 5c) according to the degree of observed microbial growth, where: a “0” ranking indicates no growth; a “1” ranking indicates one (1) through five (5) observed colony forming unit (cfu), i.e., the plate was very lightly contaminated; a “2” ranking indicates six (6) through fifteen (15) cfu, i.e., the plate was lightly contaminated; a “3” ranking indicates sixteen (16) through thirty (30) cfu, i.e., the plate was moderately contaminated; a “4” ranking indicates thirty-one (31) through forty-five (45) cfu, i.e., the plate was heavily contaminated; a “5” ranking indicates greater than (45) cfu, i.e., the plate was severely contaminated; and a “5c” ranking indicates confluent growth, i.e., the plate was very severely contaminated. Thus, for instance, Table 1, Challenge 1 at 24 h for BIT 50 ppm has a value of 5 indicating greater than forty-five (45) cfu were observed. As another example for illustration, Table 1, Challenge 1 at 24 h for dicyandiamide 5,000 ppm+BIT 50 ppm has a value of 1 indicating one (1) through five (5) cfu was observed.

[2] = tested on: Pseudomonas aeruginosa, Escherichia coli, Enterobacter cloacae, Acinetobacter calcoaceticus; assay: Repeat in-can challenge test, same conditions (Table 2); conditions: Dicyandiamide 5,000 ppm
Experimental: as §1, §2

microbial growth = assay: In-can challenge test of dicyandiamide as adjuvant for MIT (Table 3); conditions: for degree of microbial growth (plate ranking) / passing result of challenge test: Dicy 0
Excerpt: However, using a combination of MIT and dicyandiamide can allow for effective microbial control at MIT concentrations as low as 20 ppm.
as §2

Q: `N#CN=C(N)N` [Dicyandiamide, 2-cyanoguanidine] was tested. Which “degree of microbial growth (plate ranking)” value (from here on “degree of microbial growth”) ([1]; Dicyandiamide 5,000 ppm, Challenge 1 (10%), 24 h) did it give?
A: Its value is 5c.

Q: What about the “degree of microbial growth” value ([1]; Dicyandiamide 5,000 ppm, Challenge 1 (10%), 72 h) of the same compound?
A: Its value is 5c.

Q: What about the “degree of microbial growth” value ([1]; Dicyandiamide 5,000 ppm, Challenge 2 (5%), 72 h) of the same compound?
A: Its value is 5c.

Q: What about the “degree of microbial growth” value ([1]; Dicyandiamide 5,000 ppm, Challenge 3 (2.5%), 24 h) of the same compound?
A: Its value is 5c.

Q: What about the dilution plate count ([1]; Dicyandiamide 5,000 ppm, Challenge 3 (2.5%), 72 h) of the same compound?
A: The dilution plate count was 8.0 × 10^6.

Q: And the “degree of microbial growth” value ([1]; Dicyandiamide 10,000 ppm, Challenge 1 (10%), 24 h)?
A: The value was 5c.

Q: What about the “degree of microbial growth” value ([1]; Dicyandiamide 10,000 ppm, Challenge 1 (10%), 72 h) of the same compound?
A: Its value is 1 (a “1” ranking indicates one (1) through five (5) observed colony forming unit (cfu), i.e., the plate was very lightly contaminated).

Q: And the “degree of microbial growth” value ([1]; Dicyandiamide 10,000 ppm, Challenge 2 (5%), 72 h)?
A: Its value is 5 (a “5” ranking indicates greater than (45) cfu, i.e., the plate was severely contaminated).

Q: What about the “degree of microbial growth” value ([1]; Dicyandiamide 10,000 ppm, Challenge 3 (2.5%), 24 h) of the same compound?
A: The value was 5 (a “5” ranking indicates greater than (45) cfu, i.e., the plate was severely contaminated).

Q: What about the dilution plate count ([1]; Dicyandiamide 10,000 ppm, Challenge 3 (2.5%), 72 h) of the same compound?
A: Its dilution plate count is 4.2 × 10^6.

Q: What about the “efficacy of dicyandiamide alone compared to the blank” value ([1]; Table 1, not in combination with BIT) of the same compound?
A: Its value is “no significant difference compared to the blank”.

Q: What about the “degree of microbial growth” value ([2]; Challenge 1 (10%), 24 h) of the same compound?
A: Its value is 5c.

Q: What about the “degree of microbial growth” value ([2]; Challenge 1 (10%), 72 h) of the same compound?
A: Its value is 5c.

Q: And the “degree of microbial growth” value ([2]; Challenge 2 (5%), 72 h)?
A: Its value is 5c.

Q: And the “degree of microbial growth” value ([2]; Challenge 3 (2.5%), 24 h)?
A: The value was 5c.

Q: And the dilution plate count ([2]; Challenge 3 (2.5%), 72 h)?
A: The dilution plate count was 2.4 × 10^7.

Q: Which results are given for `Cn1sccc1=O` [MIT − 50, 2-methyl-4-isothiazolin-3-one]?
A: degree of microbial growth (plate ranking) (microbial growth; MIT 15 ppm as active (MIT-50 30 ppm), 1st challenge, 24): 5 (a “5” ranking indicates greater than (45) cfu, i.e., the plate was severely contaminated); degree of microbial growth (plate ranking) (microbial growth; MIT 15 ppm as active (MIT-50 30 ppm), 1st challenge, 72): 5 (a “5” ranking indicates greater than (45) cfu, i.e., the plate was severely contaminated); degree of microbial growth (plate ranking) (microbial growth; MIT 15 ppm as active (MIT-50 30 ppm), 2nd challenge, 72): 5 (a “5” ranking indicates greater than (45) cfu, i.e., the plate was severely contaminated); degree of microbial growth (plate ranking) (microbial growth; MIT 15 ppm as active (MIT-50 30 ppm), 3rd challenge, 24): 5 (a “5” ranking indicates greater than (45) cfu, i.e., the plate was severely contaminated); degree of microbial growth (plate ranking) (microbial growth; MIT 15 ppm as active (MIT-50 30 ppm), 3rd challenge, 72): 5 (a “5” ranking indicates greater than (45) cfu, i.e., the plate was severely contaminated); degree of microbial growth (plate ranking) (microbial growth; MIT 20 ppm as active (MIT-50 40 ppm), 1st challenge, 24): 5 (a “5” ranking indicates greater than (45) cfu, i.e., the plate was severely contaminated); degree of microbial growth (plate ranking) (microbial growth; MIT 20 ppm as active (MIT-50 40 ppm), 1st challenge, 72): 5 (a “5” ranking indicates greater than (45) cfu, i.e., the plate was severely contaminated); degree of microbial growth (plate ranking) (microbial growth; MIT 20 ppm as active (MIT-50 40 ppm), 2nd challenge, 72): 5 (a “5” ranking indicates greater than (45) cfu, i.e., the plate was severely contaminated); degree of microbial growth (plate ranking) (microbial growth; MIT 20 ppm as active (MIT-50 40 ppm), 3rd challenge, 24): 5 (a “5” ranking indicates greater than (45) cfu, i.e., the plate was severely contaminated); degree of microbial growth (plate ranking) (microbial growth; MIT 20 ppm as active (MIT-50 40 ppm), 3rd challenge, 72): 5 (a “5” ranking indicates greater than (45) cfu, i.e., the plate was severely contaminated); degree of microbial growth (plate ranking) (microbial growth; MIT 25 ppm as active (MIT-50 50 ppm), 1st challenge, 24): 5 (a “5” ranking indicates greater than (45) cfu, i.e., the plate was severely contaminated); degree of microbial growth (plate ranking) (microbial growth; MIT 25 ppm as active (MIT-50 50 ppm), 1st challenge, 72): 2 (a “2” ranking indicates six (6) through fifteen (15) cfu, i.e., the plate was lightly contaminated); degree of microbial growth (plate ranking) (microbial growth; MIT 25 ppm as active (MIT-50 50 ppm), 2nd challenge, 72): 5 (a “5” ranking indicates greater than (45) cfu, i.e., the plate was severely contaminated); degree of microbial growth (plate ranking) (microbial growth; MIT 25 ppm as active (MIT-50 50 ppm), 3rd challenge, 24): 5 (a “5” ranking indicates greater than (45) cfu, i.e., the plate was severely contaminated); degree of microbial growth (plate ranking) (microbial growth; MIT 25 ppm as active (MIT-50 50 ppm), 3rd challenge, 72): 5 (a “5” ranking indicates greater than (45) cfu, i.e., the plate was severely contaminated); passing result of challenge test (microbial growth; MIT 30 ppm as active (MIT-50 60 ppm)): MIT − 50 60 ppm (30)*; degree of microbial growth (plate ranking) (microbial growth; MIT 30 ppm as active (MIT-50 60 ppm), 1st challenge, 24): 5 (a “5” ranking indicates greater than (45) cfu, i.e., the plate was severely contaminated); degree of microbial growth (plate ranking) (microbial growth; MIT 30 ppm as active (MIT-50 60 ppm), 1st challenge, 72): 0; degree of microbial growth (plate ranking) (microbial growth; MIT 30 ppm as active (MIT-50 60 ppm), 2nd challenge, 72): 5 (a “5” ranking indicates greater than (45) cfu, i.e., the plate was severely contaminated); degree of microbial growth (plate ranking) (microbial growth; MIT 30 ppm as active (MIT-50 60 ppm), 3rd challenge, 24): 5 (a “5” ranking indicates greater than (45) cfu, i.e., the plate was severely contaminated); degree of microbial growth (plate ranking) (microbial growth; MIT 30 ppm as active (MIT-50 60 ppm), 3rd challenge, 72): 0; passing result of challenge test (microbial growth; MIT 35 ppm as active (MIT-50 70 ppm)): MIT − 50 70 ppm (35)*; degree of microbial growth (plate ranking) (microbial growth; MIT 35 ppm as active (MIT-50 70 ppm), 1st challenge, 24): 5 (a “5” ranking indicates greater than (45) cfu, i.e., the plate was severely contaminated); degree of microbial growth (plate ranking) (microbial growth; MIT 35 ppm as active (MIT-50 70 ppm), 1st challenge, 72): 0; degree of microbial growth (plate ranking) (microbial growth; MIT 35 ppm as active (MIT-50 70 ppm), 2nd challenge, 72): 0; degree of microbial growth (plate ranking) (microbial growth; MIT 35 ppm as active (MIT-50 70 ppm), 3rd challenge, 24): 5 (a “5” ranking indicates greater than (45) cfu, i.e., the plate was severely contaminated); degree of microbial growth (plate ranking) (microbial growth; MIT 35 ppm as active (MIT-50 70 ppm), 3rd challenge, 72): 0; MIT concentration giving passing results (microbial growth; MIT alone, no guanidine enhancer): ≥ 30 ppm
